How the values were obtained:
Assay type in all cases: cell-based, mouse
[1] = test system: α7 integrin (LacZ reporter in α7βgal+/− myoblasts); experiment: Myoblast α7+/LacZ integrin FDG assay (Burkin assay in myoblasts, 96-well); details: 96-well; for Burkin Assay in Myoblasts, signal relative to DMSO: α7+/LacZ myoblasts; for Burkin Assay in Myoblasts, value relative to DMSO: SU9516 analogs, N=3-6
[2] = test system: α7 integrin (LacZ reporter in α7+/LacZ myotubes); experiment: Myotube α7 integrin FDG assay (Burkin assay in myotubes, 96-well); details: for Burkin Assay in Myotubes, value relative to DMSO: SU9516 analogs, 96-well, N=3-6
[3] = test system: β-galactosidase in CMV-LacZ C2C12 myotubes; experiment: CMV-LacZ secondary screen in C2C12 myotubes (β-Gal stabilizing assay); details: for CMV-LACZ in Myotubes, signal relative to DMSO: C2C12 CMV-LacZ myotubes, fold relative to DMSO; for CMV-LACZ in Myotubes, value relative to DMSO: SU9516 analogs, C2C12 CMV-LacZ, N=2
Summary of the method: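 A secondary screen identifies compounds that stabilize β-gal independently of the native promoter, using CMV-LacZ C2C12 cells. Curves span 0.5–40 μM at six levels, in duplicate.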

[4] = test system: β-galactosidase in CMV-LacZ C2C12 myoblasts; experiment: CMV-LacZ secondary screen in C2C12 myoblasts (β-Gal stabilizing assay); details: for CMV-LACZ in Myoblasts (β-galactosidase activity relative to DMSO): CMV-LacZ C2C12 myoblasts; for CMV-LACZ in Myoblasts, value relative to DMSO: SU9516 analogs, C2C12 CMV-LacZ, N=2
Summary of the method: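 CMV-LacZ C2C12 line (clonal, FDG-screened); myoblasts/myotubes dosed 0.5–40 μM (0.5, 1, 5, 10, 20, 40 μM); n=2 per point; β-gal stabilization read-out.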

## CC(=O)Nc1ccc(NC(=O)c2cc(=O)c3cc(C)cc(C)c3o2)cc1 [MLS001200396-01]
[1]; 0.5 uM
  Burkin Assay in Myoblasts, signal relative to DMSO: 0.8827
[1]; 1 uM
  Burkin Assay in Myoblasts, signal relative to DMSO: 0.9245
[1]; 5 uM
  Burkin Assay in Myoblasts, signal relative to DMSO: 0.5378
[1]; 10 uM
  Burkin Assay in Myoblasts, signal relative to DMSO: 1.1321
[1]; 20 uM
  Burkin Assay in Myoblasts, signal relative to DMSO: 0.4827
[1]; 40 uM
  Burkin Assay in Myoblasts, signal relative to DMSO: 0.4794
[2]; 0.5 uM
  Burkin Assay in Myotubes, α7 integrin LacZ reporter signal relative to DMSO: 0.9301
[2]; 1 uM
  Burkin Assay in Myotubes, α7 integrin LacZ reporter signal relative to DMSO: 0.9487
[2]; 5 uM
  Burkin Assay in Myotubes, α7 integrin LacZ reporter signal relative to DMSO: 0.9829
[2]; 10 uM
  Burkin Assay in Myotubes, α7 integrin LacZ reporter signal relative to DMSO: 1.264
[2]; 20 uM
  Burkin Assay in Myotubes, α7 integrin LacZ reporter signal relative to DMSO: 0.6408
[2]; 40 uM
  Burkin Assay in Myotubes, α7 integrin LacZ reporter signal relative to DMSO: 0.7114
[3]; 0.5 uM
  CMV-LACZ in Myotubes, signal relative to DMSO: 0.9137
[3]; 1 uM
  CMV-LACZ in Myotubes, signal relative to DMSO: 0.8442
[3]; 5 uM
  CMV-LACZ in Myotubes, signal relative to DMSO: 0.8987
[3]; 10 uM
  CMV-LACZ in Myotubes, signal relative to DMSO: 0.7738
[3]; 20 uM
  CMV-LACZ in Myotubes, signal relative to DMSO: 0.9644
[3]; 40 uM
  CMV-LACZ in Myotubes, signal relative to DMSO: 0.9733
[4]; 0.5 uM
  CMV-LACZ in Myoblasts (β-galactosidase activity relative to DMSO): 1.0489
[4]; 1 uM
  CMV-LACZ in Myoblasts (β-galactosidase activity relative to DMSO): 0.9157
[4]; 5 uM
  CMV-LACZ in Myoblasts (β-galactosidase activity relative to DMSO): 1.0212
[4]; 10 uM
  CMV-LACZ in Myoblasts (β-galactosidase activity relative to DMSO): 1.2107
[4]; 20 uM
  CMV-LACZ in Myoblasts (β-galactosidase activity relative to DMSO): 0.7252
[4]; 40 uM
  CMV-LACZ in Myoblasts (β-galactosidase activity relative to DMSO): 0.9011

## O=C(NCCc1ccccc1)C1CCC(=O)N1C1CCCC1 (stereo not drawn) [MLS001200665-01]
[1]; 0.5 uM
  Burkin Assay in Myoblasts, signal relative to DMSO: 0.8982
[1]; 1 uM
  Burkin Assay in Myoblasts, signal relative to DMSO: 0.8539
[1]; 5 uM
  Burkin Assay in Myoblasts, signal relative to DMSO: 1.003
[1]; 10 uM
  Burkin Assay in Myoblasts, signal relative to DMSO: 1.245
[1]; 20 uM
  Burkin Assay in Myoblasts, signal relative to DMSO: 1.143
[1]; 40 uM
  Burkin Assay in Myoblasts, signal relative to DMSO: 1.029
[2]; 0.5 uM
  Burkin Assay in Myotubes, α7 integrin LacZ reporter signal relative to DMSO: 1.031
[2]; 1 uM
  Burkin Assay in Myotubes, α7 integrin LacZ reporter signal relative to DMSO: 0.8461
[2]; 5 uM
  Burkin Assay in Myotubes, α7 integrin LacZ reporter signal relative to DMSO: 1.091
[2]; 10 uM
  Burkin Assay in Myotubes, α7 integrin LacZ reporter signal relative to DMSO: 1.126
[2]; 20 uM
  Burkin Assay in Myotubes, α7 integrin LacZ reporter signal relative to DMSO: 0.8365
[2]; 40 uM
  Burkin Assay in Myotubes, α7 integrin LacZ reporter signal relative to DMSO: 0.8877
[3]; 0.5 uM
  CMV-LACZ in Myotubes, signal relative to DMSO: 1.1543
[3]; 1 uM
  CMV-LACZ in Myotubes, signal relative to DMSO: 0.9695
[3]; 5 uM
  CMV-LACZ in Myotubes, signal relative to DMSO: 1.1274
[3]; 10 uM
  CMV-LACZ in Myotubes, signal relative to DMSO: 0.9662
[3]; 20 uM
  CMV-LACZ in Myotubes, signal relative to DMSO: 1.1800
[3]; 40 uM
  CMV-LACZ in Myotubes, signal relative to DMSO: 1.2706
[4]; 0.5 uM
  CMV-LACZ in Myoblasts (β-galactosidase activity relative to DMSO): 1.1043
[4]; 1 uM
  CMV-LACZ in Myoblasts (β-galactosidase activity relative to DMSO): 0.9783
[4]; 5 uM
  CMV-LACZ in Myoblasts (β-galactosidase activity relative to DMSO): 0.9398
[4]; 10 uM
  CMV-LACZ in Myoblasts (β-galactosidase activity relative to DMSO): 1.0036
[4]; 20 uM
  CMV-LACZ in Myoblasts (β-galactosidase activity relative to DMSO): 0.7152
[4]; 40 uM
  CMV-LACZ in Myoblasts (β-galactosidase activity relative to DMSO): 0.9937

## Cc1ccc2c(c1)/C(=C/c1ccccc1F)C(=O)N2 [MLS001202330-01]
[1]; 0.5 uM
  Burkin Assay in Myoblasts, value relative to DMSO: 0.9738
[1]; 1 uM
  Burkin Assay in Myoblasts, value relative to DMSO: 1.028
[1]; 5 uM
  Burkin Assay in Myoblasts, value relative to DMSO: 0.9558
[1]; 10 uM
  Burkin Assay in Myoblasts, value relative to DMSO: 0.9341
[1]; 20 uM
  Burkin Assay in Myoblasts, value relative to DMSO: 0.8305
[1]; 40 uM
  Burkin Assay in Myoblasts, value relative to DMSO: 0.6468
[2]; 0.5 uM
  Burkin Assay in Myotubes, value relative to DMSO: 0.9709
[2]; 1 uM
  Burkin Assay in Myotubes, value relative to DMSO: 0.9174
[2]; 5 uM
  Burkin Assay in Myotubes, value relative to DMSO: 0.9123
[2]; 10 uM
  Burkin Assay in Myotubes, value relative to DMSO: 1.017
[2]; 20 uM
  Burkin Assay in Myotubes, value relative to DMSO: 0.6303
[2]; 40 uM
  Burkin Assay in Myotubes, value relative to DMSO: 0.6207
[3]; 0.5 uM
  CMV-LACZ in Myotubes, value relative to DMSO: 0.8314
[3]; 1 uM
  CMV-LACZ in Myotubes, value relative to DMSO: 0.9562
[3]; 5 uM
  CMV-LACZ in Myotubes, value relative to DMSO: 0.9600
[3]; 10 uM
  CMV-LACZ in Myotubes, value relative to DMSO: 0.8717
[3]; 20 uM
  CMV-LACZ in Myotubes, value relative to DMSO: 0.9168
[3]; 40 uM
  CMV-LACZ in Myotubes, value relative to DMSO: 0.8242
[4]; 0.5 uM
  CMV-LACZ in Myoblasts, value relative to DMSO: 0.7417
[4]; 1 uM
  CMV-LACZ in Myoblasts, value relative to DMSO: 0.9325
[4]; 5 uM
  CMV-LACZ in Myoblasts, value relative to DMSO: 1.0099
[4]; 10 uM
  CMV-LACZ in Myoblasts, value relative to DMSO: 0.9082
[4]; 20 uM
  CMV-LACZ in Myoblasts, value relative to DMSO: 0.9511
[4]; 40 uM
  CMV-LACZ in Myoblasts, value relative to DMSO: 0.7619

## Cc1ccc2c(c1)/C(=C/c1ccccc1)C(=O)N2 [MLS001202354-01]
[1]; 0.5 uM
  Burkin Assay in Myoblasts, value relative to DMSO: 1.077
[1]; 1 uM
  Burkin Assay in Myoblasts, value relative to DMSO: 1.023
[1]; 5 uM
  Burkin Assay in Myoblasts, value relative to DMSO: 1.036
[1]; 10 uM
  Burkin Assay in Myoblasts, value relative to DMSO: 1.073
[1]; 20 uM
  Burkin Assay in Myoblasts, value relative to DMSO: 0.516
[1]; 40 uM
  Burkin Assay in Myoblasts, value relative to DMSO: 0.4275
[2]; 0.5 uM
  Burkin Assay in Myotubes, value relative to DMSO: 0.8459
[2]; 1 uM
  Burkin Assay in Myotubes, value relative to DMSO: 0.9022
[2]; 5 uM
  Burkin Assay in Myotubes, value relative to DMSO: 0.9545
[2]; 10 uM
  Burkin Assay in Myotubes, value relative to DMSO: 1.069
[2]; 20 uM
  Burkin Assay in Myotubes, value relative to DMSO: 0.5824
[2]; 40 uM
  Burkin Assay in Myotubes, value relative to DMSO: 0.5785
[3]; 0.5 uM
  CMV-LACZ in Myotubes, value relative to DMSO: 1.0676
[3]; 1 uM
  CMV-LACZ in Myotubes, value relative to DMSO: 0.9200
[3]; 5 uM
  CMV-LACZ in Myotubes, value relative to DMSO: 0.8910
[3]; 10 uM
  CMV-LACZ in Myotubes, value relative to DMSO: 1.0340
[3]; 20 uM
  CMV-LACZ in Myotubes, value relative to DMSO: 0.7000
[3]; 40 uM
  CMV-LACZ in Myotubes, value relative to DMSO: 0.7863
[4]; 0.5 uM
  CMV-LACZ in Myoblasts, value relative to DMSO: 1.2275
[4]; 1 uM
  CMV-LACZ in Myoblasts, value relative to DMSO: 0.9521
[4]; 5 uM
  CMV-LACZ in Myoblasts, value relative to DMSO: 0.9669
[4]; 10 uM
  CMV-LACZ in Myoblasts, value relative to DMSO: 0.9170
[4]; 20 uM
  CMV-LACZ in Myoblasts, value relative to DMSO: 0.8378
[4]; 40 uM
  CMV-LACZ in Myoblasts, value relative to DMSO: 0.7437

## Cc1ccc2c(c1)/C(=C/c1ccc(F)cc1)C(=O)N2 [MLS001202366-01]
[1]; 0.5 uM
  Burkin Assay in Myoblasts, value relative to DMSO: 1.007
[1]; 1 uM
  Burkin Assay in Myoblasts, value relative to DMSO: 0.9698
[1]; 5 uM
  Burkin Assay in Myoblasts, value relative to DMSO: 0.8762
[1]; 10 uM
  Burkin Assay in Myoblasts, value relative to DMSO: 0.7458
[1]; 20 uM
  Burkin Assay in Myoblasts, value relative to DMSO: 0.4873
[1]; 40 uM
  Burkin Assay in Myoblasts, value relative to DMSO: 0.2456
[2]; 0.5 uM
  Burkin Assay in Myotubes, value relative to DMSO: 1.114
[2]; 1 uM
  Burkin Assay in Myotubes, value relative to DMSO: 1.099
[2]; 5 uM
  Burkin Assay in Myotubes, value relative to DMSO: 1.089
[2]; 10 uM
  Burkin Assay in Myotubes, value relative to DMSO: 0.9194
[2]; 20 uM
  Burkin Assay in Myotubes, value relative to DMSO: 0.5272
[2]; 40 uM
  Burkin Assay in Myotubes, value relative to DMSO: 0.5105
[3]; 0.5 uM
  CMV-LACZ in Myotubes, value relative to DMSO: 0.9844
[3]; 1 uM
  CMV-LACZ in Myotubes, value relative to DMSO: 1.0570
[3]; 5 uM
  CMV-LACZ in Myotubes, value relative to DMSO: 0.8072
[3]; 10 uM
  CMV-LACZ in Myotubes, value relative to DMSO: 0.9927
[3]; 20 uM
  CMV-LACZ in Myotubes, value relative to DMSO: 0.8329
[3]; 40 uM
  CMV-LACZ in Myotubes, value relative to DMSO: 1.0847
[4]; 0.5 uM
  CMV-LACZ in Myoblasts, value relative to DMSO: 0.7656
[4]; 1 uM
  CMV-LACZ in Myoblasts, value relative to DMSO: 0.6431
[4]; 5 uM
  CMV-LACZ in Myoblasts, value relative to DMSO: 1.0533
[4]; 10 uM
  CMV-LACZ in Myoblasts, value relative to DMSO: 1.3214
[4]; 20 uM
  CMV-LACZ in Myoblasts, value relative to DMSO: 0.7222
[4]; 40 uM
  CMV-LACZ in Myoblasts, value relative to DMSO: 0.3322
